Experimental data from US12059420B2 (BRISTOL-MYERS SQUIBB COMPANY, priority 2018, dated 2024).

Target: T1, human IDO1 (Homo sapiens, UniProt P14902)
T1 construct: expressed in transfected cells
Assay: IDO inhibition assay in HEK293 cells stably expressing human IDO1 (kynurenine production, Ehrlich reagent, absorbance 490 nm)
Format: cell-based
Settings: 20 hours incubation with compound, 500 nM reference standard = 100% inhibition, read-out: IDO1 HEK Human IC50
Outline: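 Kynurenine output of stably IDO1-transfected HEK293 cells was measured by absorbance at 490 nm after mixing supernatant with 0.2% Ehrlich reagent, following TCA stop (0.2% final, 50° C., 30 min). Cells were incubated 20 hours with compound. Inhibition was scaled between DMSO and 500 nM reference standard.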

T1 sequence (P14902 whole entry): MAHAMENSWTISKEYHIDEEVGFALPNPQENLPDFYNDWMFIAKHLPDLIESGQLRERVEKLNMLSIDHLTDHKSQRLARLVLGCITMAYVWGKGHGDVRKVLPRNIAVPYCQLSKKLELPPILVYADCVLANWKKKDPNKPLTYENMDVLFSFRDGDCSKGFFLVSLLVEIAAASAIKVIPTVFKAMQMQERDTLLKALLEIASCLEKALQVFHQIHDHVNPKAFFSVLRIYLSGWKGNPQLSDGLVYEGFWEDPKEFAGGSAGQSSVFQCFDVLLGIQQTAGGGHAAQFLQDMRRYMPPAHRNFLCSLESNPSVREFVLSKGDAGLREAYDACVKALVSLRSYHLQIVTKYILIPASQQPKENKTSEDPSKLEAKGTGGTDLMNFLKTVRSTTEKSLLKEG

SMILES	IC50 [µM]
CC(C)CN(Cc1ccccc1)c1cc(NC(=O)Nc2ccc(F)cc2F)cc(-c2ccccc2-c2nnn[nH]2)n1 [Example 237, 1-(2-(2-(1H-tetrazol-5-yl)phenyl)-6-(benzyl(isobutyl)amino)pyridin-4-yl)-3-(2,4-difluorophenyl)urea]	0.131
CCC(CC(=O)O)c1cc(Nc2ccc(Cl)cc2)cc(N(Cc2ccccc2)C(C)C)n1 (stereo not shown) [Example 241, 3-(6-(benzyl(isopropyl)amino)-4-((4-chlorophenyl)amino)pyridin-2-yl)pentanoic acid]	0.0213
CCC(CC(=O)O)c1cc(Nc2ccc3nc(C)sc3c2)cc(N(Cc2ccccc2)C(C)C)n1 (stereo not shown) [Example 242, 3-(6-(benzyl(isopropyl)amino)-4-((2-methylbenzo[d]thiazol-6-yl)amino)pyridin-2-yl)pentanoic acid]	0.971
CC(C)CN(CC(C)C)c1cc(NC(=O)Nc2ccccc2F)cc(-c2cc(F)ccc2C(=O)O)n1 [Example 251, 2-(6-(diisobutylamino)-4-(3-(2-fluorophenyl)ureido)pyridin-2-yl)-4-fluorobenzoic acid]	2
CC(C)CN(CC(C)C)c1cc(NC(=O)Nc2ccccc2F)cc(-c2ccccc2C(=O)O)n1 [Example 252, 2-(6-(diisobutylamino)-4-(3-(2-fluorophenyl)ureido)pyridin-2-yl)benzoic acid]	0.972
Cc1ccc(NC(=O)Nc2cc(-c3ccccc3C(=O)O)nc(N(CC(C)C)CC(C)C)c2)cc1 [Example 254, 2-(6-(diisobutylamino)-4-(3-(p-tolyl)ureido)pyridin-2-yl)benzoic acid]	1.08
CCCN(c1cc(NC(=O)Nc2ccc(C)cc2)cc(-c2cc(F)ccc2C(=O)O)n1)C1CCCCC1 [Example 256]	0.98
CCCN(c1cc(NC(=O)Nc2ccc(C)cc2)cc(-c2ccccc2C(=O)O)n1)C1CCCCC1 [Example 257, 2-(6-(cyclohexyl(propyl)amino)-4-(3-(p-tolyl)ureido)pyridin-2-yl)benzoic acid]	1.89
CCCN(c1cc(NC(=O)Nc2ccc(C)cc2)cc(-c2ccccc2-c2nnn[nH]2)n1)C1CCCCC1 [Example 258, 1-(2-(2-(1H-tetrazol-5-yl)phenyl)-6-(cyclohexyl(propyl)amino)pyridin-4-yl)-3-(p-tolyl)urea]	0.411
CCCN(Cc1ccccc1)c1cc(NC(=O)Nc2ccc(C)cc2)cc(-c2ccccc2-c2nnn[nH]2)n1 [Example 260, 1-(2-(2-(1H-tetrazol-5-yl)phenyl)-6-(benzyl(propyl)amino)pyridin-4-yl)-3-(p-tolyl)urea]	0.0099
CCCN(Cc1ccccc1)c1cc(NC(=O)Nc2ccccc2F)cc(-c2cc(F)ccc2C(=O)O)n1 [Example 261, 2-(6-(benzyl(propyl)amino)-4-(3-(2-fluorophenyl)ureido)pyridin-2-yl)-4-fluorobenzoic acid]	1.64
CCCN(Cc1ccccc1)c1cc(NC(=O)Nc2ccccc2F)cc(-c2ccccc2-c2nnn[nH]2)n1 [Example 262, 1-(2-(2-(1H-tetrazol-5-yl)phenyl)-6-(benzyl(propyl)amino)pyridin-4-yl)-3-(2-fluorophenyl)urea]	0.105
CCCN(Cc1ccccc1)c1cc(NC(=O)Nc2cc(C)cc(C)c2)cc(-c2ccccc2-c2nnn[nH]2)n1 [Example 263, 1-(2-(2-(1H-tetrazol-5-yl)phenyl)-6-(benzyl(propyl)amino)pyridin-4-yl)-3-(3,5-dimethylphenyl)urea]	0.145
CCCN(Cc1ccccc1)c1cc(NC(=O)Nc2ccc(C(F)(F)F)cc2F)cc(-c2ccccc2-c2nnn[nH]2)n1 [Example 265, 1-(2-(2-(1H-tetrazol-5-yl)phenyl)-6-(benzyl(propyl)amino)pyridin-4-yl)-3-(2-fluoro-4-(trifluoromethyl)phenyl)urea]	0.0433
CCCN(Cc1ccccc1)c1cc(NC(=O)Nc2cc(C)no2)cc(-c2ccccc2-c2nnn[nH]2)n1 [Example 266, 1-(2-(2-(1H-tetrazol-5-yl)phenyl)-6-(benzyl(propyl)amino)pyridin-4-yl)-3-(3-methylisoxazol-5-yl)urea]	2.7
CCCN(Cc1ccccc1)c1cc(NC(=O)Nc2ccc(C)nc2)cc(-c2ccccc2-c2nnn[nH]2)n1 [Example 267, 1-(2-(2-(1H-tetrazol-5-yl)phenyl)-6-(benzyl(propyl)amino)pyridin-4-yl)-3-(6-methylpyridin-3-yl)urea]	1.36
CCN(Cc1ccccc1)c1cc(NC(=O)Nc2ccc(C(F)(F)F)cc2)cc(-c2ccccc2-c2nnn[nH]2)n1 [Example 276]	0.148
CCOc1ccc(NC(=O)Nc2cc(-c3ccccc3-c3nnn[nH]3)nc(N(CC)Cc3ccccc3)c2)cc1 [Example 279]	0.537
CCN(Cc1ccccc1)c1cc(NC(=O)Nc2ccc(Cl)cc2Cl)cc(-c2ccccc2-c2nnn[nH]2)n1 [Example 281]	0.0137
CCN(Cc1ccccc1)c1cc(NC(=O)Cc2cc(C)no2)cc(-c2ccccc2-c2nnn[nH]2)n1 [Example 283]	1.15
CCN(Cc1ccccc1)c1cc(NC(=O)Cc2cccnc2)cc(-c2ccccc2-c2nnn[nH]2)n1 [Example 284]	1.62
CCN(Cc1ccccc1)c1cc(NC(=O)Cc2ccc(C)nc2)cc(-c2ccccc2-c2nnn[nH]2)n1 [Example 285]	2.33

Continued, values first:

IC50 [µM]	SMILES
0.687	CC(C)CN(Cc1ccccc1)c1cc(NC(=O)c2ccc(F)c(F)c2)cc(-c2ccccc2-c2nnn[nH]2)n1 [Example 236, N-(2-(2-(1H-tetrazol-5-yl)phenyl)-6-difluorobenzamide (benzyl(isobutyl)amino)pyridin-4-yl)-3,4-]
0.0263	CC(C)CN(Cc1ccccc1)c1cc(NC(=O)Nc2ccc(Cl)cc2Cl)cc(-c2ccccc2-c2nnn[nH]2)n1 [Example 238, 1-(2-(2-(1H-tetrazol-5-yl)phenyl)-6-(benzyl(isobutyl)amino)pyridin-4-yl)-3-(2,4-dichlorophenyl)urea]
0.566	CC(C)CN(Cc1ccccc1)c1cc(NC(=O)Nc2ccc(OC(F)(F)F)cc2)cc(-c2ccccc2-c2nnn[nH]2)n1 [Example 239, 1-(2-(2-(1H-tetrazol-5-yl)phenyl)-6-(benzyl(isobutyl)amino)pyridin-4-yl)-3-(4-(trifluoromethoxy)phenyl)urea]
0.0119	Cc1ccc(NC(=O)Nc2cc(-c3ccccc3-c3nnn[nH]3)nc(N(Cc3ccccc3)CC(C)C)c2)cc1 [Example 240, 1-(2-(2-(1H-tetrazol-5-yl)phenyl)-6-(benzyl(isobutyl)amino)pyridin-4-yl)-3-(p-tolyl)urea]
0.972	CC(C)CN(CC(C)C)c1cc(NC(=O)Nc2ccccc2F)cc(-c2ccccc2-c2nnn[nH]2)n1 [Example 253, 1-(2-(2-(1H-tetrazol-5-yl)phenyl)-6-(diisobutylamino)pyridin-4-yl)-3-(2-fluorophenyl)urea]
1.8	CCCCNC(=O)Nc1cc(-c2ccccc2-c2nnn[nH]2)nc(N(CCC)Cc2ccccc2)c1 [Example 264, 1-(2-(2-(1H-tetrazol-5-yl)phenyl)-6-(benzyl(propyl)amino)pyridin-4-yl)-3-butylurea]
0.0302	CCCN(Cc1ccccc1)c1cc(NC(=O)Nc2ccc(OC(F)(F)F)cc2)cc(-c2ccccc2-c2nnn[nH]2)n1 [Example 268, 1-(2-(2-(1H-tetrazol-5-yl)phenyl)-6-(benzyl(propyl)amino)pyridin-4-yl)-3-(4-(trifluoromethoxy)phenyl)urea]
0.0463	CCCN(Cc1ccccc1)c1cc(NC(=O)Nc2ccc(OC(F)F)cc2)cc(-c2ccccc2-c2nnn[nH]2)n1 [Example 271, 1-(2-(2-(1H-tetrazol-5-yl)phenyl)-6-(benzyl(propyl)amino)pyridin-4-yl)-3-(4-(difluoromethoxy)phenyl)urea]
0.609	O=C(Nc1ccc(OC(F)(F)F)cc1)Nc1cc(-c2ccccc2-c2nnn[nH]2)nc(N(Cc2ccccc2)Cc2ccccc2)c1 [Example 273, 1-(2-(2-(1H-Tetrazol-5-yl)phenyl)-6-(dibenzylamino)pyridin-4-yl)-3-(4-(trifluoromethoxy)-phenyl)urea]
0.0268	CCN(Cc1ccccc1)c1cc(NC(=O)Nc2ccc(C)cc2)cc(-c2ccccc2-c2nnn[nH]2)n1 [Example 274, 1-(2-(2-(1H-Tetrazol-5-yl)phenyl)-6-(benzyl(ethyl)amino)pyridin-4-yl)-3-(p-tolyl)urea]
0.0266	CCN(Cc1ccccc1)c1cc(NC(=O)Nc2ccc(Cl)cc2F)cc(-c2ccccc2-c2nnn[nH]2)n1 [Example 275]
0.782	CCN(Cc1ccccc1)c1cc(NC(=O)Nc2ccc(OC(F)(F)F)cc2)cc(-c2ccccc2-c2nnn[nH]2)n1 [Example 277]
0.478	CCN(Cc1ccccc1)c1cc(NC(=O)Nc2ccc3c(c2)OCO3)cc(-c2ccccc2-c2nnn[nH]2)n1 [Example 278]
0.554	CCN(Cc1ccccc1)c1cc(NC(=O)Nc2ccc(OC(F)F)cc2)cc(-c2ccccc2-c2nnn[nH]2)n1 [Example 280]
1.58	CCN(Cc1ccccc1)c1cc(NC(=O)Cc2ccc(C#N)cc2)cc(-c2ccccc2-c2nnn[nH]2)n1 [Example 282, N-(2-(2-(1H-Tetrazol-5-yl)phenyl)-6-(benzyl(ethyl)amino)pyridin-4-yl)-2-(4-cyanophenyl)acetamide]
0.365	Cc1ccc(NC(=O)Nc2cc(-c3ccccc3-c3nnn[nH]3)nc(N(CC(C)C)C3CCCCC3)c2)cc1 [Example 286, 1-(2-(2-(1H-Tetrazol-5-yl)phenyl)-6-(cyclohexyl(isobutyl)amino)pyridin-4-yl)-3-(p-tolyl)urea]
5.99	CC(C)CN(c1cc(NC(=O)Nc2ccc(F)cc2F)cc(-c2ccccc2-c2nnn[nH]2)n1)C1CCCCC1 [Example 287, 1-(2-(2-(1H-Tetrazol-5-yl)phenyl)-6-(cyclohexyl(isobutyl)amino)pyridin-4-yl)-3-(2,4-difluorophenyl)urea]
0.155	CCCN(Cc1ccccc1)c1cc(NC(=O)Nc2ccc3c(c2)OCO3)cc(-c2ccccc2-c2nnn[nH]2)n1 [Example 288, 1-(2-(2-(1H-Tetrazol-5-yl)phenyl)-6-(benzyl(propyl)amino)pyridin-4-yl)-3-(benzo[d][1,3]dioxol-5-yl)urea]
